Source: patent US10292979B2, “Methods of treating cancer patients with farnesyltransferase inhibitors” (Kura Oncology, Inc., priority 2015, dated 2019)
Where “and” joins values, the source holds several entries; their conditions need not be identical. Equal values may be shown once.

Key:
tumor in nude mice = conditions: cited from earlier work
[1] = test system: previously untreated elderly or unfit AML patients; experiment: CTEP-20 phase 2 trial of tipifarnib, outcome by N-RAS gene status; format: in vivo, human; conditions: for PFS: FIG. 8; for ORR (response rate): FIG. 9
Method: CTEP-20 was a phase 2 clinical trial of tipifarnib in previously untreated elderly or unfit AML patients. (Raponi et al., Blood 111:2589-96 (2008)).
N-RAS gene status was determined for 32 patients. […] Accordingly, AML patients can be selected based on mutation status of RAS gene for tipifarnib treatment in order to increase the responsiveness to the treatment.

[2] = test system: salivary gland cancers with HRAS mutations; experiment: Phase 2 trial of tipifarnib in advanced tumors with HRAS mutation, cohort 2; format: in vivo, human
Source text: (§1) A Phase 2 clinical trial was initiated to use tipifarnib in the treatment of advanced tumors with a known HRAS mutation. The clinical trial design includes enrolling 2 cohorts of 18 patients each. Cohort 1 enrolls subjects with malignant thyroid tumors with HRAS mutations, independent of thyroid histology. Cohort 2 enrolls any subject with a non-hematological HRAS mutant tumor other than thyroid cancer who meets eligibility criteria.
(§2) This clinical trial was designed to include two stages, with the first stage including 11 evaluable patients, and the second stage including 7 additional evaluable patients, and a cohort would not proceed to the second stage if one or no objective response is observed in a cohort in the first stage. The clinical trial is considered positive if at least 4 responses are observed in a cohort out of 18 subjects. The primary endpoint is objective response rate, and tumor response assessments are conducted according to the Response Evaluation Criteria in Solid Tumors version 1.1 criteria (confirmation of response is required).
(§3) According to the protocol, tipifarnib is administered to enrolled patients at a starting dose of 900 mg, orally with food, twice a day (b.i.d.) for 7 days in alternating weeks (Days 1-7 and 15-21) in 28 day cycles. At the discretion of the investigator, the dose of tipifarnib can be increased to 1200 mg b.i.d. if the subject has not experienced dose limiting toxicities at the 900 mg dose level. Subjects who develop serious adverse events (SAE) or ≥grade 2 treatment-emergent adverse events (TEAE) that are deemed related to tipifarnib and lasting ≥14 days will not undergo dose escalation. Stepwise 300 mg dose reductions to control treatment-related, treatment-emergent toxicities are also allowed.
(§4) Four (4) evaluable patients were enrolled in the first cohort (patients with malignant thyroid tumors with HRAS mutations) and eleven (11) evaluable patients were enrolled in the second cohort (patients with non-hematologic malignancies other than thyroid cancer with HRAS mutations). In the second cohort, three (3) of those patients have relapsed/refractory head-and-neck carcinoma and two (2) of those three (3) experienced confirmed objective partial responses (PR) and a third patient experienced disease stabilization beyond six months (>8 months). All three head and neck carcinoma patients are HPV negative. All head and neck patients remain on study. […] In addition, five (5) patients enrolled patients have salivary gland cancers with HRAS mutations, and three (3) of them experienced disease stabilization beyond six months (>7, 9 and >11 months). Cohort 2 was proceeded into the second stage of the trial for enrolment of additional seven patients per the trial protocol.

[3] = test system: relapsed/refractory head-and-neck carcinoma with HRAS mutations; experiment: as above; format: in vivo, human
Source text: as §1, §2, §3, §4

AML patients = experiment: Clinical outcome of AML patients treated with tipifarnib versus NK cell biomarker expression in bone marrow (GSE8970/CTEP-20, GSE5122); format: in vivo, human; conditions: for Exp(b), Cox proportional hazards regression: AML patients treated with tipifarnib
Method: The current study used microarray data generated from global gene expression assay of bone marrow samples collected in two clinical studies investigating the efficacy and safety of FTI tipifarnib. One clinical study was conducted in adult patients aged 65 years or older with previously untreated AML, and the other conducted in relapsed and refractory AML. The clinical results for these studies were previously published (Lancet et al., Blood 109:1387-1394 (2007); Harousseau et al., Blood 9:9 (2007); Raponi et al., Clin. Cancer Res. 13:2254-2260 (2007)), and the gene profiling data were publically available in NCBI's Gene Expression Omnibus (GEO, http://www.ncbi.nlm.nih.gov/geo) and are assessable through GEO Series accession numbers GSE8970 and GSE5122.
As described in Raponi et al., Blood 111:2589-96 (2008), BM samples were collected from consenting patients before treatment with tipifarnib, and mononuclear cells were processed on site. Total RNA was extracted from cell samples, quality controlled, and further processed for microarray analysis. DNA was isolated from the same sample. Samples were assayed for global gene expression, and/or quantitative polymerase chain reaction (QPCR) of specific genes).
Briefly, CR was defined as BM showing less than 5% myeloblasts with normal maturation of all cell lines, absolute neutrophil count (ANC) of at least 10^9/L (1000/μL), and a platelet count of 100×10^9/L (100 000/μL). PR was defined as the presence of recovery of ANC and platelets to the above stated levels, but with 5% to 19% BM blasts, and a greater than 50% decrease in BM blast percentage from baseline. HI was defined as the same as PR, except with recovery of ANC to 0.5 to 1×10^9/L (500 to 1000/μL) and platelet count to 20 to 100×10^9/L (20 000 to 100 000/μL). Progressive disease (PD) was defined as any of the following: more than 50% increase in BM blast percentage from baseline (more than 5% blasts if baseline is less than 5%, more than 10% blasts if baseline is 5% to 10%, and more than 20% blasts if baseline 10% to 20%); greater than 50% increase in circulating blasts; new appearance of circulating blasts on at least 2 consecutive occasions; or development of extramedullary leukemia. Stable disease (SD) was defined as any response not meeting CR, PR, HI, or PD criteria.
Kaplan Meier curves were used to investigate the relationship between biomarker values and clinical benefit. The identification of multiple NK cell related genes, the long duration of response observed in some tipifarnib patients, and the role of RAS mediated signal transduction in NK cells support that the responsiveness of AML patients to tipifarnib treatment could be resulted from bone marrow infiltrates of immune cells.

[4] = AML patients with wild type N-RAS
[5] = 34 previously untreated poor-risk and elderly AML patients
[6] = AML patients with 2DS2/2DL2 ratio at the highest (4th) quartile

CC[C@H](C)[C@@H](CO[C@@H](Cc1ccccc1)C(=O)N[C@@H](CCS(C)(=O)=O)C(=O)O)NC[C@@H](N)CS [L-739749, 2(S)-[2(S)-[2(R)-amino-3-mercapto]propylamino-3(S)-methyl]-pentyloxy-3-phenylpropionyl-methionine sulfone]
antitumor activity (tumor in nude mice): potent antitumor activity | toxicity (tumor in nude mice): without system toxicity

Cn1cncc1[C@@](N)(c1ccc(Cl)cc1)c1ccc2c(c1)c(-c1cccc(Cl)c1)cc(=O)n2C [Tipifarnib, (B)-6-[amino(4-chlorophenyl)(1-methyl-1H-imidazol-5-yl)methyl]-4-(3-ch-lorophenyl)-1-methyl-2(1H)-quinolinone]
PFS ([1]; AML patients with mutant N-RAS): 65 days | ORR (response rate) ([1]; AML patients with mutant N-RAS): 27% | PFS [1, 4]: 157 days | ORR (response rate) [1, 4]: 43% | number of patients with disease stabilization beyond six months ([2]; of 5 patients with salivary gland cancers with HRAS mutations): 3 | duration of disease stabilization ([2]; the three individual salivary gland cancer patients with stabilization): > 7 months and 9 months and > 11 months | number of patients with confirmed objective partial responses (PR) ([3]; of 3 HPV negative relapsed/refractory head-and-neck carcinoma patients, 900 mg b.i.d. days 1-7 and 15-21 of 28 day cycles): 2 | duration of disease stabilization ([3]; third head-and-neck carcinoma patient): > 8 months | KIR2DS2 High 4th Quartile (Upper) Median Survival (AML patients; [5]): 564 days | KIR2DS2 Low 1st-3rd Quartile Median Survival (AML patients; [5]): 153 days | Median Overall Survival (AML patients; 34 previously untreated poor-risk and elderly AML patients, all): 233 days | median OS (AML patients; [6]): 750 days | median PFS (AML patients; [6]): 431 days | Exp(b), Cox proportional hazards regression (AML patients; FIG. 2A: PFS versus KIR2DS2/KIR2DL2 expression ratio): 0.0006 | Exp(b), Cox proportional hazards regression (AML patients; FIG. 2B: OS versus 2DS2/2DL2 ratio): 0.0048 | Exp(b), Cox proportional hazards regression (AML patients; FIG. 4A: PFS versus 2DS5/2DL5A ratio): 0.0294 | Exp(b), Cox proportional hazards regression (AML patients; FIG. 6A: GZMM/OS): 0.5688 | Exp(b), Cox proportional hazards regression (AML patients; FIG. 6A: GZMM/PFS): 0.5568 | 1-4th Q Median (survival) (AML patients; GSE8970 (CTEP-20), Front Line Elderly AML, 2DS2/2DL2 ratio 1st-4th quintile): 179 days | HR (AML patients; GSE8970 (CTEP-20), Front Line Elderly AML, 2DS2/2DL2 ratio 5th Q versus rest): 0.21 | 5th Q Median (survival) (AML patients; GSE8970 (CTEP-20), Front Line Elderly AML, 2DS2/2DL2 ratio highest quintile): 754 days | all Median (survival) (AML patients; GSE8970 (CTEP-20), Front Line Elderly AML, all patients): 233 days | Hazards Ratio (AML patients; KIR2DS2 high versus low, 34 AML patients): 0.303
